Earlier results, collected in patent US20110104281A1, “METHOD FOR TREATING PAIN USING A SUBSTITUTED 2-AMINOTETRALIN COMPOUND” (UCB PHARMA GMBH, priority 2006, published 2011).

Columns and labels:
D3 receptor = D3 receptor (Homo sapiens, UniProt P35462); conditions: cited from earlier work
D1 receptor = D1 receptor (Homo sapiens, UniProt P21728); conditions: cited from earlier work
5-HT1A receptor = 5-HT1A receptor (Homo sapiens, UniProt P08908); conditions: cited from earlier work
α2B receptor = α2B receptor (Homo sapiens, UniProt P18089); conditions: cited from earlier work
Chain of α2B receptor (P18089 whole entry): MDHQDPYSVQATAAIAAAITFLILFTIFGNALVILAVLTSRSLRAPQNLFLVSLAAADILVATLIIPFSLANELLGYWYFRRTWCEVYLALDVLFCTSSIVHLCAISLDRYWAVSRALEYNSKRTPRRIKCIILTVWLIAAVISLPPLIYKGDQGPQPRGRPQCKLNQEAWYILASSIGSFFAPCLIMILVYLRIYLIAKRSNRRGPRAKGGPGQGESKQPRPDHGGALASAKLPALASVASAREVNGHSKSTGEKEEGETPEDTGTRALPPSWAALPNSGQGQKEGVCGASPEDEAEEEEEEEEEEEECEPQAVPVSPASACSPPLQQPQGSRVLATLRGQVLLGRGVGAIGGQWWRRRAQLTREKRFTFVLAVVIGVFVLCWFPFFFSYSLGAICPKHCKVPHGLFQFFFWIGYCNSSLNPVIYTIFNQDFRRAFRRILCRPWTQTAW

5-HT7 = 5-HT7 (Homo sapiens, UniProt P34969); conditions: cited from earlier work
Chain of 5-HT7 (P34969 whole entry, species assumed): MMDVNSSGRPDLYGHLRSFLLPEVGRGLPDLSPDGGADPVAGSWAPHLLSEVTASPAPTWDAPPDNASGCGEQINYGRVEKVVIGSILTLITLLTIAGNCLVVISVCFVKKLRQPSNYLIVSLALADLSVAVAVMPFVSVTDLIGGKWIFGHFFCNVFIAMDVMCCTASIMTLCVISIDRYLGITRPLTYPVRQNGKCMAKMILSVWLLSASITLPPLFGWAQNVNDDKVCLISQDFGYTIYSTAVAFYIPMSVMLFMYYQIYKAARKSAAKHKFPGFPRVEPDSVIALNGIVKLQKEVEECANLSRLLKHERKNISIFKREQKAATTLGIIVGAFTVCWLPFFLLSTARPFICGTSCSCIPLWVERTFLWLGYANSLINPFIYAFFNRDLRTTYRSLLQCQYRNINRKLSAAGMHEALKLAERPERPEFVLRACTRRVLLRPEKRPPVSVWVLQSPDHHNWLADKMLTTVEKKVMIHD

α2C = α2C (Homo sapiens, UniProt P18825); conditions: cited from earlier work
Chain of α2C (P18825 whole entry): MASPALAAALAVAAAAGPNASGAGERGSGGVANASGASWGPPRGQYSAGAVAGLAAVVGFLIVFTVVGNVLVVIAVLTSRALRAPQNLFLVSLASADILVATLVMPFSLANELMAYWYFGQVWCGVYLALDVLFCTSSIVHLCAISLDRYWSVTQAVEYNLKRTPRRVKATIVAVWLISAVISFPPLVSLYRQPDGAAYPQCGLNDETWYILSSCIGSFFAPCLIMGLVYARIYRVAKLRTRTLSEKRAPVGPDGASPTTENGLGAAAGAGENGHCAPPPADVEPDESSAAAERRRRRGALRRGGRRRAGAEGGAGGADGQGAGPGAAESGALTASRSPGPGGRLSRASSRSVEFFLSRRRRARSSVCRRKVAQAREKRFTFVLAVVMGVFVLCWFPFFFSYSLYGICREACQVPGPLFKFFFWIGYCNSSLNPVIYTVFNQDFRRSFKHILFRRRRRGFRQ

fibromyalgia patients = conditions: preliminary clinical studies; cited from earlier work

Chain of D3 receptor (P35462 whole entry): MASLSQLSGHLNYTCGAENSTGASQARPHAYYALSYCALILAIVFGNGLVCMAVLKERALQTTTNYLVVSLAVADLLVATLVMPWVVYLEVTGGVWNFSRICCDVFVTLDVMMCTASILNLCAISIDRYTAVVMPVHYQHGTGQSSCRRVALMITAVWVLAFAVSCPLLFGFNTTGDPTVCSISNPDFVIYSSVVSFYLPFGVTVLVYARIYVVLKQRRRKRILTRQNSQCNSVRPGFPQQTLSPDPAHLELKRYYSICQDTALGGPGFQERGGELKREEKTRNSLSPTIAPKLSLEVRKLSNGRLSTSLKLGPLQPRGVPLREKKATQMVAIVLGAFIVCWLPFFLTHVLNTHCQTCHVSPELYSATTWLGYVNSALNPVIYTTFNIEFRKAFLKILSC
Chain of 5-HT1A receptor (P08908 whole entry): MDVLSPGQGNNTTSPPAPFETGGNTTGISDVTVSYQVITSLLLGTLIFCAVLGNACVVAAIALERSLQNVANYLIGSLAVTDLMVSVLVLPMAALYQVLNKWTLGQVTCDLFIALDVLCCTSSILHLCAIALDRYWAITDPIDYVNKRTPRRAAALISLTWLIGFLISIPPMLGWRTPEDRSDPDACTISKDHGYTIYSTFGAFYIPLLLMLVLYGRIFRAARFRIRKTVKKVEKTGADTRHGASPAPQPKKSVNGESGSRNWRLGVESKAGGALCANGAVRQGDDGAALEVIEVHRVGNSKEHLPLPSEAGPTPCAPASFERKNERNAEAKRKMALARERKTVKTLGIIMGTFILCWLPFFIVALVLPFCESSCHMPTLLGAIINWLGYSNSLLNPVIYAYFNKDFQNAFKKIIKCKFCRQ
Chain of D1 receptor (P21728 whole entry): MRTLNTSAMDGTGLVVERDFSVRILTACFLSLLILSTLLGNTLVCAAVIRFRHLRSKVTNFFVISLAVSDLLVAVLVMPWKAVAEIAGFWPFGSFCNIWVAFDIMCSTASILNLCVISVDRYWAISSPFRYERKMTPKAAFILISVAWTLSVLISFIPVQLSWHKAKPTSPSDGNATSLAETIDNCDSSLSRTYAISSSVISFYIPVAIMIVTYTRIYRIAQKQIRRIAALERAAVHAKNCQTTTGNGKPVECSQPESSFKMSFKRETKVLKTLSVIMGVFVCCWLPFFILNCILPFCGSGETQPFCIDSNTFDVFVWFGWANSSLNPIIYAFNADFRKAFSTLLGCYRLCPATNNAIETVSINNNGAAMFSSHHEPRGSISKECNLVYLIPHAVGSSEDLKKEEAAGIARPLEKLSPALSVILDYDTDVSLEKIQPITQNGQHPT

Row | SMILES | Affinity for D3 receptor (D3 receptor) | Affinity for D1 receptor (D1 receptor) | Affinity / action at 5-HT1A receptor (5-HT1A receptor) | Affinity / action at α2B receptor (α2B receptor) | Affinity for 5-HT7 (5-HT7) | Affinity for α2C (α2C) | Pain in fibromyalgia patients (fibromyalgia patients)
1 | CCCN[C@H]1CCc2nc(N)sc2C1 [Pramipexole] | strongest affinity for D3 | only weak or no affinity | only weak or no affinity | only weak or no affinity | only weak or no affinity | only weak or no affinity | shown to reduce pain
2 | CCCN(CCC)CCc1cccc2c1CC(=O)N2 [ropinirole] | strongest affinity for D3 | only weak or no affinity | only weak or no affinity | only weak or no affinity | only weak or no affinity | only weak or no affinity | shown to reduce pain
